The record followed here is patent publication US20210196779A1, “Compositions and Methods for Treating Steroid Hormone-Related Diseases or Disorders” (YALE UNIVERSITY, priority 2018, published 2021).

The structures appear in SMILES notation.

For one assay, the system named is Brd4. The experiment in a line: Western blot, MCF7 and 22RV1 cells, Brd4. The note with it: MCF7 (with or without E2) or 22RV1 (with or without DHT), 24 h. The format is cell-based. On the procedure: (§1) Western blot analysis was used to determine the protein expression using protein specific antibodies. β-actin or histone 3 was used to normalize protein loading.
(§2) Total cell lysis was conducted using 2×SDS sample buffer (62.5 mM Tris-HCl, 2% SDS, 10% glycerol, 50 mM DTT, and 0.05% bromophenol blue). The samples were sonicated for 10 s to shear DNA. Cell nuclei were isolated using Tris buffer saline with 0.4% NP40. Cell extracts were then electrophoresed through 10% SDS-polyacrylamide gels and transferred to 0.2 μm nitrocellulose membranes (Bio-Rad Laboratories, Hercules, Calif.) with a Miniprotein II transferring apparatus (Bio-Rad). The membranes were blocked and probed in TBS-T buffer (1×TBS buffer, 0.2% Tween 20) containing 5% non-fat milk. […] Enhanced chemiluminescence reagents (Perkin-Elmer Life Science Products, Boston, Mass.) were used to visualize the immunoreactive bands and the densities of protein bands were scanned analyzed using ImageJ software from the NIH.
(In general: In western blotting, separated proteins are transferred to a membrane and probed.)

The next assay has as its system Gata3. The experiment in a line: Western blot, MCF7 cells, Gata3. The format is cell-based. The note with it: 24 h. On the procedure: (§3) Western blot analysis was used to determine the protein expression using protein specific antibodies.
as §2, with “milk. Monoclonal rabbit anti-AR (1:5000), was used to detect androgen receptor (Abcam #133273), Glucocorticoid Receptor (D8H2) XP® Rabbit mAb #3660, ERa Antibody (F-10): sc-8002, BRD4 (E2A7X) Rabbit mAb #13440, Brd2 (D89B4) Rabbit mAb #5848, PARP (46D11) Rabbit mAb #9532, Acetyl-Histone H3 (Lys27) (D5E4) XP® Rabbit mAb #8173 and a monoclonal actin antibody diluted 1:2500 (Sigma, St. Louis, Mo.) was used to detect β-actin as the internal control to confirm equal protein loading.” for “milk.”

The subject of the next assay is H3K9 acetylation. In words: Western blot, MCF7 and 22RV1 cells, H3K9 acetylation. Format: cell-based. The note with it: MCF7 and 22RV1 cells (FIGS. 11A-11B), 24 h. The method, then:
as §1, §2

In another assay the test system is MDA-MB-453 cells. In words: Cell growth assay, MDA-MB-453 breast cancer cells. Format: cell-based. Conditions: 4 days. The method, then:
MCF7, T47D, MDA-MB-453, MDA-MB-231 breast cancer cells were grown in corning T75 cell culture flask in RPMI1640 medium supplemented with 5% FBS, 50 μg/ml Kanamycin in a 37° C., 5% CO2 incubator.
20,000 cells in 1 ml of medium (phenol red free RPMI1640, 5% charcoal-dialysis FBS, 50 μg/ml Kanamyacin) were seeded per well of a 24-well plate and incubated in a 37° C. incubator with 5% CO2 overnight. Different concentrations of herbal extract were added to each well in order to have final concentrations from 50 μg/ml to 500 μg/ml. For prostate cancer cells, DHT (25 nM) was used to stimulate androgen receptor activity. For glucocorticoid receptor overexpressed LNCaP cells, dexamethasone (50 nM) was used to stimulate glucocorticoid receptor activity. For all breast cancer cells, E2 (10 nM) was used to stimulate ER activity. Control medium without any steroid hormone was used as a control setting. After 4 days of incubation, cells were fixed and stained for 2 h with 0.5% methylene blue in 50% ethanol, followed by washing with tap water to remove unbound dye. Plates were air dried and then cells were dissolved in 1% sarkosyl (sodium lauroyl sarcosinate) by shaking at room temperature for 3 h. Cell growth was quantified based on the amount of methylene blue adsorbed by the cells as measured by a spectrophotometer (Molecular Devices) at 595 nm. […]

The next assay has as its system H3K27 acetylation. In words: Western blot, MCF7 and 22RV1 cells, H3K27 acetylation. Format: cell-based. Conditions: 24 h. The method, then: as §1, §2
Assay [1] has as its target glucocorticoid receptor (GR) (Homo sapiens, UniProt P04150). The experiment in a line: PSA-luciferase reporter assay, DEX induced, 22RV1 cells. Format: cell-based. Also on record: endogenous in cells. Conditions: 22RV1 PSA-luciferase reporter cells. The method, then:
Reporter cells were treated with herbal extracts at 30, 100, 300, and 1000 μg/ml for 24 h in a 37° C.-CO2 incubator. DHT (25 nM) was used to stimulate androgen receptor activity. Dexamethasone (50 nM) was used to stimulate glucocorticoid receptor activity Cells were lysed using luciferase lysis buffer after which luciferase buffer with luciferin was added to generate luminescence. Luminescence was recorded using a luminescence microplate reader.

The subject of a further assay is CD47. In words: Western blot, MCF7 cells, CD47. Conditions: MCF7 cells (FIG. 10). Format: cell-based. On the procedure: as §2, with “milk. Monoclonal rabbit anti-AR (1:5000), was used to detect androgen receptor (Abcam #133273), Glucocorticoid Receptor (D8H2) XP® Rabbit mAb #3660, ERa Antibody (F-10): sc-8002, BRD4 (E2A7X) Rabbit mAb #13440, Brd2 (D89B4) Rabbit mAb #5848, PARP (46D11) Rabbit mAb #9532, Acetyl-Histone H3 (Lys27) (D5E4) XP® Rabbit mAb #8173 and a monoclonal actin antibody diluted 1:2500 (Sigma, St. Louis, Mo.) was used to detect β-actin as the internal control to confirm equal protein loading.” for “milk.”

A further assay concerns 22RV1 tumor. In words: Inhibition of 22RV1 prostate cancer growth in nude mice. The format is in vivo. Conditions: equivalent dose to Y1830 (2.2 mg/kg, PO, B.I.D.), 11 days. On the procedure:
22RV1 prostate cancer cells 5×10^6 cells in 100 μl Matrigel were injected subcutaneously into 10 week old male NCR nude mice. When 22RV1 tumor reached 5 mm×5 mm, mice were orally fed with Y1830 (water extract, 500 mg/kg, PO, B.I.D, N5) and RGA (or the fraction comprising RGA) (equivalent dose to Y1830: 2.2 mg/kg, PO, B.I.D.) for 11 days. Tumor volume was estimated by using the formula length×width^2/2.
When tumors reached 5 mm×5 mm, Y1830 water extract (500 mg/kg, BID, PO) and RGA (or the fraction comprising RGA) at equivalent dose to Y1830 were used to treat animals for 11 days. […] Therefore, it is further concluded that compounds other than molecules in RGA containing fraction of Y1830 total extract may also have anti-tumor activity or prevent tumor to develop drug resistant.

A further assay relates to tumor protein p53. In words: Western blot, MCF7 cells, p53. The format is cell-based. The note with it: wt MCF7 cells, 24 h. On the procedure: as §3
as §2, with “milk. Monoclonal rabbit anti-AR (1:5000), was used to detect androgen receptor (Abcam #133273), Glucocorticoid Receptor (D8H2) XP® Rabbit mAb #3660, ERa Antibody (F-10): sc-8002, BRD4 (E2A7X) Rabbit mAb #13440, Brd2 (D89B4) Rabbit mAb #5848, PARP (46D11) Rabbit mAb #9532, Acetyl-Histone H3 (Lys27) (D5E4) XP® Rabbit mAb #8173 and a monoclonal actin antibody diluted 1:2500 (Sigma, St. Louis, Mo.) was used to detect β-actin as the internal control to confirm equal protein loading.” for “milk.”

The subject of a further assay is PSA mRNA. In words: qRT-PCR of PSA mRNA in 22RV1 cells. The note with it: 22RV1 cells treated overnight, normalized to beta-actin. The format is cell-based, Human. On the procedure:
(§4) FIGS. 4C-4D are graphs showing the effect of Y1830, RG (or the fraction comprising RG) and RGA (or the fraction comprising RGA) on the mRNA of PSA (FIG. 4C) and KLK2 (FIG. 4D). 22RV1 cells were treated with Y1830, RGA or RG overnight and mRNA was extracted for qRT-PCR to determine the mRNA expression level of PSA and KLK2 as normalized to beta-actin.
(§5) RNA was extracted from herb treated cells using the Roche High Pure RNA isolation kit. cDNA was then generated from RNA samples using a Bio-rad iScript Advanced cDNA synthesis kit for RT-qPCR. qPCR was performed using human NRF2, H01, NQO1 and β-actin primers (Table 1) and iTaq™ Universal SYBR® Green Supermix in a CFX PCR machine (Bio-rad). Relative mRNA expression was calculated based on the change of the threshold cycle relative to the internal control, β-actin, using a standard curve generated by purified PCR products.
(Quantitative PCR measures a nucleic acid by following its amplification.)

In the next assay the test system is KLK2 mRNA. In words: qRT-PCR of KLK2 mRNA in 22RV1 cells. The format is cell-based, Human. Conditions: 22RV1 cells treated overnight, normalized to beta-actin. On the procedure: as §4, §5

glucocorticoid receptor (GR), sequence (P04150 whole entry): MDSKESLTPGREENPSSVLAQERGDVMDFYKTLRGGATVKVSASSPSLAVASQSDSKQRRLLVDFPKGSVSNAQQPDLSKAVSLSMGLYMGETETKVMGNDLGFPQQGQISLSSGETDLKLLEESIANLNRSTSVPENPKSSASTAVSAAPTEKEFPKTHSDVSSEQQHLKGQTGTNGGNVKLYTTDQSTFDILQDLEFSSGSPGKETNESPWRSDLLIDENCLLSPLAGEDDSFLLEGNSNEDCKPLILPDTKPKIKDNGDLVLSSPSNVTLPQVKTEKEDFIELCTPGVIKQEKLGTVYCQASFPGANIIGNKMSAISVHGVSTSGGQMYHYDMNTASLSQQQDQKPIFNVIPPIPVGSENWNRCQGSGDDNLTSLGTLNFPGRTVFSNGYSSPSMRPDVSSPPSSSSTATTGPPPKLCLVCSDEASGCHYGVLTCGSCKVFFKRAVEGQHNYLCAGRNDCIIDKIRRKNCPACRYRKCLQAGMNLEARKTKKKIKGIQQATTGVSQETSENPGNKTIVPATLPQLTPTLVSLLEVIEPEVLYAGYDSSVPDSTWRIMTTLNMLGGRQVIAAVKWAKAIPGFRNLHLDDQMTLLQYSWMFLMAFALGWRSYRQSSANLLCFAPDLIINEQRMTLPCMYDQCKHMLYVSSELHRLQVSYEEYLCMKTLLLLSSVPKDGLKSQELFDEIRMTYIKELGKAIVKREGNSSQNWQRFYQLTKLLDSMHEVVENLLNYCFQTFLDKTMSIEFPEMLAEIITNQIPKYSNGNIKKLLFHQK

As for `CC(=O)OCC1OC(Oc2cc3c(c(O)c2C)C(=O)c2ccc(O)cc2C3=O)C(OC2OC(C)C(O)C(O)C2O)C(O)C1O` [RGA, 1,3,6-Trihydroxy-2-methyl-9,10-anthracenedione 3-O-[α-L-Rhamnopyranosyl-(1→2)-6-O-acetyl-β-D-glucopyranoside]], the Brd4 protein expression result in the assay on Brd4 is “decreased”. The Gata3 protein expression entry in the assay with Gata3 was “downregulation”. For the same molecule, the H3K9 acetylation entry in the assay on H3K9 acetylation is listed as “did not have a large impact”. Further, the “inhibition of growth of double negative MDA-MB-453 cells” value with MDA-MB-453 cells is recorded as “inhibited the growth”. In addition, the H3K27 acetylation entry in the assay on H3K27 acetylation is listed as “selectively decreased”. Further, the “inhibitory effect on DEX induced transcriptional response” value in assay [1] is given as “inhibitory effect”. Further, the CD47 expression result with CD47 is “downregulation”. For the same molecule, in the assay with 22RV1 tumor, the “inhibition on 22RV1 tumor growth” value is listed as “significant inhibition on 22RV1 tumor growth from day 2 to day 6”. Besides, the p53 protein expression result in the assay on tumor protein p53 is “downregulated”.
Take `Cc1c(OC2OC(CO)C(O)C(O)C2OC2OC(C)C(O)C(O)C2O)cc2c(c1O)C(=O)c1ccc(O)cc1C2=O` [RG, 1,3,6-Trihydroxy-2-methyl-9,10-anthracenedione 3-O-[α-L-Rhamnopyranosyl-(1→2)-β-D-glucopyranoside]]: the “inhibition of mRNA expression of PSA” value in the assay on PSA mRNA is recorded as “did not demonstrate this level of activity”. The “inhibition of mRNA expression of KLK2” value in the assay with KLK2 mRNA is listed as “did not demonstrate this level of activity”.
